Source: patent US7534871B2, “Preparation and use of carbohydrate-based bicyclic ring structures with antimicrobial and cytostatic activity” (Kemin Pharma B.V.B.A., priority 2004, dated 2009)
Values after ≈ are worked out from the molar mass of the structure shown. Where two headings read alike, the source gives them in different places.

How the values were obtained:
[1] = system: CMV AD-169 strain; assay: Anti-CMV activity: plaque reduction in HEL cells, AD-169 strain; format: cell-based, human cytomegalovirus (CMV); conditions: for IC50: Human betaherpesvirus 5, AD169, HEL, Table 2, reduce virus plaque formation by 50%, virus input 100 PFU, read-out: IC50 CMV AD-169 Strain
[2] = system: human T-lymphocyte cells (Molt4/C8); assay: Cytostatic activity: inhibition of proliferation of Molt4/C8 cells; format: cell-based
Method: (§1) The compounds were tested for anti-tumor activity via the inhibitory effects on the proliferation of murine leukemia cells (L1210/0), murine mammary carcinoma cells (FM3A), human T-lymphocyte cells (Molt4/C8, CEM/0) and human cervix carcinoma cells (HeLa).

[3] = system: VZV OKA; assay: microbe, parasite or virus in culture; format: cell-based, varicella zoster virus (VZV); conditions: for EC50: Human alphaherpesvirus 3, HEL, read-out: EC50 VZV (HEL) OKA
[4] = system: Candida albicans IHEM 10284 - ATCC 24433; assay: Anti-fungal activity, Bioscreen C growth curve: Candida albicans (yeast); format: cell-based; conditions: for activity at 25 ppm: Candida albicans, ATCC24433, 35° C., 24 hours, negative control = 100, read-out: % of growth at a dose of 25 PPM compared to the negative control, Candida albicans IHEM 10284 - ATCC 24433
Method: (§2) For the determination of the anti-bacterial and anti-fungal activity the Bioscreen C Analyser Labsystems, Finland, was used. This is an automated reader-incubator. It measures growth continuously by vertical photometry (optical density), processes the data and provides a print out of the results. The area under the growth curve is automatically determined via the Biolink software.
The inoculum size of the yeast is standardized to 0.5-2.5×10^3 CFU/ml.
(§3) For bacteria, the 100-honey-well plates containing test chemical, Mueller-Hinton broth and inoculum (=sample) are incubated at 35° C. for 16 hours. Also wells without inoculum are incubated (=blanco). Yeasts are incubated 35° C. for 24 hours in RPMI 1640+MOPS buffer at 165 mM. Moulds also in RPMI 1640+MOPS buffer at 165 mM are incubated 25° C. for 5 days. All micro-organisms are screened against a known concentration of the reference antibiotics or antimycotics such as vancomycin, penicillin G, gentamicin or amphotericin B. The growth curve and the area under the growth curve can be determined using the Biolink software; this is illustrated in FIG. 1.
(§4) The area of the blanco is subtracted from the area of the sample, this number (delta) gives us an indication of the biological activity of the molecules tested and can be expressed as a % of growth at a specific dose compared to a negative control that has a value of 100, illustrated in FIG. 2. Screening of each dose of a specific compound is repeated 5 times. The dose used for all new molecules in all tests is 25 PPM or 25 μg/ml.
In Table 5 the anti-fungal activity is given for the new molecules. The micro-organisms used were Candida albicans (a typical yeast) and Microsporum gypseum (a typical mold).
as §2, with “Also for” for “For”, “the” for “the anti-bacterial and”, “Labsystems Oy, Finland” for “Labsystems, Finland,”, “used.” for “used. This is an automated reader-incubator.”
The inoculum size of the yeast is standardized to 0.5-2.5×10^3 CFU/ml. The inoculum size of the mould is standardized to 0.4-5.0×10^4 CFU/ml. Yeasts are incubated 35° C. for 24 hours in RPMI 1640+MOPS buffer at 165 mM. Moulds also in RPMI 1640+MOPS buffer at 165 mM are incubated 25° C. for 5 days.
As a control, all micro-organisms are screened against some reference antibiotics with known MIC. Screening of each dose of a specific compound is repeated 5 times.

[5] = system: human cervix carcinoma cells (HeLa); assay: Cytostatic activity: inhibition of proliferation of HeLa cells; format: cell-based; conditions: 50% inhibitory concentration, cell proliferation
Method: as §1

[6] = system: L1210/0, FM3A, Molt4/C8, CEM/0 and HeLa cells; assay: Cytostatic studies, conclusion over the panel of cell lines; format: cell-based, murine and human; conditions: conclusion in text on Table 3
Method: as §1

[7] = system: E. faecalis ATTC29212 LMG 8222; assay: Anti-bacterial activity, Bioscreen C growth curve: E. faecalis; format: cell-based; conditions: Enterococcus faecalis, LMG8222, 35° C., 16 hours, negative control = 100, read-out: % of growth at 25 PPM compared to the negative control, E. faecalis ATTC29212 LMG 8222
Method: as §2
The inoculum size of the bacteria is standardized to approximately 5×10^5 CFU/ml.
as §3, §4
In Table 4 the results of the anti-bacterial activity is given for the new molecules. The micro-organisms used are Staphylococcus aureus, MRSA, VRE, Enterococcus faecalis, Salmonella typhimurium and Pseudomonas aeruginosa.

[8] = system: CMV Davis strain; assay: Anti-CMV activity: plaque reduction in HEL cells, Davis strain; format: cell-based, human cytomegalovirus (CMV); conditions: Human betaherpesvirus 5, HEL; Table 2; reduce virus plaque formation by 50%; virus input 100 PFU; read-out: IC50 CMV David strain
[9] = system: HEL cells; assay: Cytotoxicity: alteration of cell morphology (MCC); format: cell-based, human; conditions: minimum cytotoxic concentration that causes a microscopically detectable alteration of cell morphology
[10] = Cytotoxicity: inhibition of HEL cell growth (CC50); format: cell-based; conditions: human; concentration required to reduce cell growth by 50%; HEL cells, three days
Method: The medium was then replaced by MEM containing various concentrations of the test compound. After three days incubation at 37° C., when the cell monolayer was 70% confluent, the cell number was determined with the Coulter counter. The minimum cytotoxic concentration was defined as the concentration required to reduce cell growth by 50%.

[11] = Molt4/C8, 50% inhibitory concentration, cell proliferation, read-out: IC50 Molt4/C8

Compound	IC50 [1] [µg/mL]	anti-viral activity against CMV, in words ([1]; strain not named)	IC50 [2, 11] [µg/mL]	EC50 [3] [µg/mL]	anti-viral activity against VZV, in words ([3]; strain not named)	melting point [°C]	activity at 25 ppm [4] [%]	IC50 [5] [µg/mL]	cytostatic activity, in words [6]	activity at 25 ppm [7] [%]	IC50 [8] [µg/mL]	Cytotoxicity Cell morphology (MCC) [9] [μg/ml]	CC50 at 3 days [10] [µg/mL]	activity against a yeast, in words ([4]; conclusion in text on Table 5)	IC50 ([2]; Molt4/C8, read-out: IC50 Molt4/C8) [µg/mL]
CO[C@@H]1[C@@H](OC)[C@H](Sc2ccccc2)O[C@@H]2COC(=O)CCCC/C=C/CCCCC(=O)O[C@@H]12 [KPE00001016.1]	10 (≈ 20.3 µM)	especially active	39 ± 1 (≈ 79.2 µM)	5 (≈ 10.1 µM)	especially active	60 to 61	98.4	19 ± 5 (≈ 38.6 µM)	good cytostatic activity	76.5	10 (≈ 20.3 µM)	–	–	–	–
CO[C@@H]1[C@@H](OC)[C@H](Sc2ccccc2)O[C@@H]2COC(=O)CCCC/C=C\CCCCC(=O)O[C@@H]12 [KPE00001016.2]	> 20	–	78 ± 53 (≈ 158 µM)	> 50	–	87 to 88	85	169 ± 44 (≈ 343 µM)	–	98.4	> 20	–	–	–	–
CO[C@@H]1[C@@H](OC)[C@H](c2ccccc2)O[C@@H]2CO[C@@H](c3ccccc3)O[C@@H]12 [KPE00001015]	–	–	62 ± 3 (≈ 174 µM)	13 (≈ 36.5 µM)	–	–	66.6	104 ± 65 (≈ 292 µM)	–	86	–	50	> 50	best activity	–
CO[C@@H]1[C@@H](OC)[C@H](Cc2ccccc2)O[C@@H]2COC(=O)CC/C=C/CCC(=O)O[C@@H]12 [KPE00001022]	> 5	–	–	> 20	–	–	91.5	~167 (≈ 399 µM)	good cytostatic activity	96.1	–	–	–	–	69 ± 6 (≈ 165 µM)
CO[C@@H]1[C@@H](OC)[C@H](Cc2ccccc2)O[C@@H]2CO[C@@H](c3ccccc3)O[C@@H]12 [KPE00001019]	–	–	≥ 200	> 5	–	–	98.5	> 200	–	104	–	20	> 50	–	–
CO[C@@H]1[C@@H](OC)[C@H](Cc2ccccc2)O[C@@H]2COC(=O)CCCCCCCCC=CCCCCCCCCC(=O)O[C@@H]12 [KPE00001031E]	> 5	–	≥ 200	> 5	–	45 to 46	88.3	> 200	–	85.5	–	–	–	–	–
